{"source": "patent US20240108722A1", "about": "“TUMOR-INFILTRATING LYMPHOCYTES WITH MEMBRANE BOUND INTERLEUKIN 15 AND USES THEREOF” (OBSIDIAN THERAPEUTICS, INC., priority 2021, published 2024)", "system": "regulated mbIL15 TILs", "assay": "ACZ regulation of IL15 expression and signaling, phospho-flow cytometry-based assay", "type": "cell-based, human", "conditions": "18 hours", "procedure": "Pre-REP TILs were prepared similarly to the methods of Example 1-3 and 9, and unengineered and mbIL15 TIL generated accordingly as described in Examples 1-3 and 9. Engagement of the IL15 signaling pathway results in phosphorylation of signal transducers downstream, including the transcription factor protein STAT5 and ribosomal protein S6. […] Next, the regulated mbIL15 TILs were regulated for 18 hours in the presence of a range of concentrations of ACZ including 0.1, 1, 2.5, 5, 10, 25, 100 as well as vehicle control. The regulated mbIL15 TILs were then collected for staining and FACS analysis.\nBriefly, cells were stained using antibodies for CD3, CD4, CD8, IL15 and a Live/Dead marker. Then cells were fixed in 2% formaldehyde (BD Cytofix) and permeabilized using a methanol-based buffer (BD Phospho Perm III Buffer) before staining with antibodies specific for phosphorylated STAT5 (Biolegend) and S6 (Cell Signaling Technology). Cells were acquired on the BD Symphony and analyzed using FlowJo software.\nWith increasing concentrations of ACZ expression of mbIL15 also increases, plateauing at around 10-25 μM of ACZ. FIG. 9A. […] FIGS. 9B-E and FIG. 10.", "data": [{"smiles": "CC(=O)Nc1nnc(S(N)(=O)=O)s1", "note": "[ACZ, acetazolamide]", "values": [{"measurement": "staining intensity of pSTAT5 and pS6", "setting": "0.1-100 μM ACZ, regulated mbIL15 TILs", "result": "increased with higher concentrations of ACZ"}, {"measurement": "ACZ concentration at which mbIL15 expression plateaus", "setting": "regulated mbIL15 TILs from four human donors", "result": "10 to 25", "unit": "µM"}]}]}
